Reference: publication PMC11091243, “PD-L1 targeted peptide demonstrates potent antitumor and immunomodulatory activity in cancer immunotherapy” (Frontiers in Immunology, 2024)

System: serum cytokines of CT26-bearing mice
Experiment: Cytokine ELISA of serum of treated CT26-bearing mice
Type: in vivo, mouse
Details: 14 days of administration, versus untreated and control peptide groups
Protocol: After 14 days of continuous administration, 0.5-1.0 ml of peripheral blood was collected from the mice. Serum was isolated from peripheral blood using the posterior orbital venous plexus blood collection method. The serum was obtained by centrifuging at 2000 RMP for 10 minutes. Mouse total lymphocytes were isolated from the spleen using Ficoll density gradient fractionation (Shanghai Biotech Bioengineering). In 200 μL of RIPM medium with 10% FBS, 1×10^6 tumor cells were seeded in each well with a CT26: lymphocyte ratio of 1:2 and incubated for 48 and 72 hours. Cell growth medium was harvested by centrifuging at 2000 RPM for 10 min. For the analysis of cytokine production, lymphocyte growth media served as a positive control and cell-free growth medium served as a negative control. Following the manufacturer’s instructions, the levels of IL-2, IL-4, IL-6, IL-10, TNF-α and IFN-γ in the blood and cell growth media were assessed using LEGEND MAX™ ELISA kit (BioLegend Inc, USA). Three duplicates of each experiment were carried out.

## CC(C)[C@H](NC(=O)[C@H](CO)NC(=O)[C@@H](NC(=O)[C@@H](N)CO)C(C)C)C(=O)N[C@@H](CO)C(=O)N[C@@H](Cc1c[nH]cn1)C(=O)N[C@@H](Cc1ccccc1)C(=O)N[C@@H](CCC(N)=O)C(=O)N[C@@H](CCCCN)C(=O)N[C@H](C(=O)N[C@@H](Cc1c[nH]c2ccccc12)C(=O)N[C@H](C(=O)N[C@H](C(=O)NCC(=O)NCC(=O)NCC(=O)N[C@@H](CO)C(=O)N[C@@H](CCCCN)C(N)=O)C(C)C)C(C)C)C(C)C [PPL-C]
  IFN-γ, IL-2, IL-4 and IL-6 secretion in serum: significantly promoted
  IL-10 secretion in serum: lower IL-10 secretion
